{"source": "patent US4628089A", "about": "“Pyrido(2,3-D)pyrimidines” (Southern Research Institute, priority 1985, dated 1986)", "key": {"[1]": {"tested_on": "mammalian dihydrofolate reductase", "settings": "Grivsky et al., J. Med. Chem., 23, 327 (1980); cited from earlier work"}, "[2]": {"tested_on": "hypertensive rat", "settings": "L. R. Bennett et al, J. Med. Chem., 24, 382 (1981); cited from earlier work"}, "[3]": {"tested_on": "thymidylate synthetase", "settings": "background; cited from earlier work"}, "[4]": {"tested_on": "lymphocytic leukemia P388", "assay": "Activity against lymphocytic leukemia P388 in mice", "assay_type": "in vivo, mouse (CDF1 mice)", "settings": "ip, qd 1-5 days, 10^6 P388 cells ip, CDF1 mice"}, "[5]": {"tested_on": "Human epidermoid carcinoma cell No. 2", "assay": "Cell culture cytotoxicity, inhibition of colony formation after 12 days", "assay_type": "cell-based", "settings": "288 h, colony formation after 12 days in plastic flask, read-out: ED50 (concentration inhibiting colony formation by 50%)", "source_text": "^a Human epidermoid carcinoma cell No. 2.\n^c Concentrations inhibiting colony formation by 50% after 12 days as\ndetermined in plastic flask."}, "[6]": {"tested_on": "dihydrofolate reductase", "settings": "background; cited from earlier work"}}, "data": [{"smiles": "COc1ccc(OC)c(Cc2cnc3nc(N)nc(N)c3c2C)c1", "values": [{"measurement": "inhibition of mammalian dihydrofolate reductase", "setting": "[1]", "value": "potent lipid-soluble inhibitor of mammalian dihydrofolate reductase"}]}, {"smiles": "Cc1ncc2cc(-c3c(Cl)cccc3Cl)c(N)nc2n1", "values": [{"measurement": "blood pressure in the hypertensive rat", "setting": "[2]", "value": "lowered blood pressure"}]}, {"smiles": "C#CCN(Cc1ccc2nc(N)nc(O)c2c1)c1ccc(C(=O)N[C@@H](CCC(=O)O)C(=O)O)cc1", "note": "[5,8-dideaza-10-propargylfolic acid, N-[4-[N-[(2-amino-4-hydroxy-6-quinazolinyl)methyl]prop-2-ynylamino]benzoyl]-L-glutamic acid]", "values": [{"measurement": "inhibition of thymidylate synthetase", "setting": "[3]", "value": "potent inhibitor of thymidylate synthetase"}]}, {"smiles": "CN(Cc1cnc2nc(N)[nH]c(=O)c2c1)c1ccc(C(=O)N[C@@H](CCC(=O)O)C(=O)O)cc1", "note": "[I (R = CH3), N-[4[[(2-amino-4(3H)-oxopyrido[2,3-d]-pyrimidin-6-yl)methyl]methylamino]benzoyl]-L-glutamic acid]", "values": [{"measurement": "% ILS", "setting": "[4]; 200 mg/kg", "value": 11, "unit": "%"}, {"measurement": "IC50", "setting": "[5]", "value": 11200, "unit": "nM"}]}, {"smiles": "Nc1nc2ncc(CNc3ccc(C(=O)N[C@@H](CCC(=O)O)C(=O)O)cc3)cc2c(=O)[nH]1", "note": "[I (R = H), N-[4-[(2-Amino-4(3H)-oxopyrido[2,3-d]pyrimidin-6-yl)methylamino]benzoyl]-L-glutamic Acid]", "values": [{"measurement": "% ILS", "setting": "[4]; 100 mg/kg", "value": 17, "unit": "%"}, {"measurement": "IC50", "setting": "[5]", "value": 6100, "unit": "nM"}]}, {"smiles": "CN(Cc1cnc2nc(N)nc(N)c2c1)c1ccc(C(=O)N[C@@H](CCC(=O)O)C(=O)O)cc1", "note": "[II (R = CH3), N-[4-[[(2,4-Diaminopyrido[2,3-d]pyrimidine-6-yl)methyl]methylamino]benzoyl]-L-glutamic acid]", "values": [{"measurement": "30th day survivor", "setting": "[4]; 4 mg/kg", "value": "One"}, {"measurement": "% ILS", "setting": "[4]; 4 mg/kg", "value": 92, "unit": "%"}, {"measurement": "IC50", "setting": "[5]", "value": 4, "unit": "nM"}]}, {"smiles": "Nc1nc(N)c2cc(CNc3ccc(C(=O)N[C@@H](CCC(=O)O)C(=O)O)cc3)cnc2n1", "note": "[II (R = H), N-[4-[(2,4-Diaminopyrido[2,3-d]pyrimidine-6-yl)methylamino]benzoyl]-L-glutamic acid]", "values": [{"measurement": "IC50", "setting": "[5]", "value": 13, "unit": "nM"}]}, {"smiles": "CN(Cc1cnc2nc(N)nc(N)c2n1)c1ccc(C(=O)N[C@@H](CCC(=O)O)C(=O)O)cc1", "note": "[Methotrexate, reference compound]", "values": [{"measurement": "inhibition of dihydrofolate reductase", "setting": "[6]", "value": "Powerful dihydrofolate reductase inhibitors"}, {"measurement": "IC50", "setting": "[5]", "value": 1, "unit": "nM"}]}, {"smiles": "CCOC(=O)CC[C@H](NC(=O)c1ccc(NCc2cnc3nc(N)nc(N)c3c2)cc1)C(=O)OCC", "note": "[VII (R = H; R1 = C2 H5), Diethyl N-[4-[(2,4-diaminopyrido[2,3-d]pyrimidine-6-yl)methylamino]benzoyl]-L-glutamate]", "values": [{"measurement": "% ILS", "setting": "[4]; 1 mg/kg", "value": 118, "unit": "%"}, {"measurement": "IC50", "setting": "[5]", "value": 52, "unit": "nM"}]}]}
